What is called EC50 is the concentration giving half of the maximal effect. Usually GI50 stands for the concentration at which growth is held to half of that of the control. Read a low GI50 as greater sensitivity of the cells. In general, IC50 refers to the concentration that gives 50% inhibition.

Three molecules from KR20140034898A, “헤테로시클릭 술폰아미드 유도체” (노파르티스 아게, priority 2011, dated 2012) can be followed below.

One data set concerns A375 P-Erk. Put plainly: A375 P-Erk (In-Cell-Western). It is filed as cell-based. The note with it: A-375; A375 human melanoma cells, 3 h compound treatment, triplicate; 100% inhibition = reference inhibitor at highest test concentration.
Another data set concerns A375 cells [A375 세포]. Put plainly: A375 cell viability assay (XTT). The data set is classed as cell-based. The following applies: Homo sapiens, A-375, 72 h, 3 days after compound addition. In general terms: Formazan colour is commonly taken as a measure of viable cells.
The nature of data set [1]: Pharmacokinetics in athymic nude rats. It is filed as in vivo, rat. The note with it: one-way ANOVA versus Example 1.
The target of data set [2] is BRAF-MEK-ERK cascade [BRAF-MEK-ERK 캐스케이드]. Put plainly: BRAF-MEK-ERK cascade assay (TR-FRET, recombinant enzymes). It is filed as biochemical, human. The following applies: mean ± SEM, n=3; 100 μM ATP; 45 min pre-incubation, 90 min kinase reaction. Background: Time-resolved FRET reads energy transfer from a long-lived donor to a nearby acceptor.

`O=S(=O)(Nc1c(Nc2ccc(I)cc2F)c(F)c(F)c2ccoc12)C1(C[C@@H](O)CO)CC1` (single isomer, unassigned) [실시예 1B] came in with an EC50 in the data set on A375 P-Erk of 15.6 nM. In the data set on A375 cells [A375 세포], this molecule had a GI50 of 29.6 nM. Besides, the “PK parameters compared with Example 1” value in data set [1] is reported as “증진된 PK-파라미터”. The IC50 in data set [2] stood at 1.6 ± 0.1 nM.

Consider `O=S(=O)(Nc1c(Nc2ccc(I)cc2F)c(F)c(F)c2ccoc12)C1(C[C@H](O)CO)CC1` (single isomer, unassigned) [실시예 1A], for which, in the data set with A375 P-Erk, a half-maximal response (EC50) required 6.4 nM. Further, the GI50 in the data set on A375 cells [A375 세포] was 13.4 nM. Moreover, the “PK parameters compared with Example 1” value in data set [1] is recorded as “증진된 PK-파라미터”. Also, the IC50 in data set [2] amounted to 2 ± 0.25 nM.

In the case of `O=S(=O)(Nc1c(Nc2ccc(I)cc2F)c(F)c(F)c2ccoc12)C1(CC(O)CO)CC1` (racemic) [실시예 1, 1-(2,3-디히드록시-프로필)-시클로프로판술폰산 [4,5-디플루오로-6-(2-플루오로-4-아이오도-페닐아미노)-벤조푸란-7-일]아미드], the response in the data set with A375 P-Erk was half-maximal at 12.2 nM (EC50). It took 17.6 nM to inhibit growth with A375 cells [A375 세포] by half (GI50). In addition, in data set [2], the IC50 turned out to be 2.1 ± 0.58 nM.
